Measured values: the supplement of paper PMC10307832

Experiments:
Assay in all cases: relative viability (nuclei count vs DMSO), 5 days (fraction); higher = more cells survive
[1] = compound: C=CCNC1=C2C[C@@H](C)C[C@H](OC)[C@H](O)[C@@H](C)/C=C(\C)[C@H](OC(N)=O)[C@@H](OC)/C=C\C=C(/C)C(=O)NC(=CC1=O)C2=O [17-AAG]
Summary of the method: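 Cells of lung cancer lines were placed in 1536-well plates and kept overnight at 37 °C. Pinning then delivered five library-drug doses (not always all listed), spaced by √10, onto plates anchored with vehicle, and the cells were left 5 days without changing medium. One step fixed, permeabilised and stained them with Hoechst, and MetaXpress counted nuclei in 4× images. Viability, as a median over plates, is treated-well nuclei divided by vehicle-well nuclei, with acceptance only at control CV below 25% and at least one doubling.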

[2] = compound: C=CCNC1=C2C[C@@H](C)C[C@H](OC)[C@H](O)[C@@H](C)/C=C(\C)[C@H](OC(N)=O)[C@@H](OC)/C=C\C=C(/C)C(=O)NC(=CC1=O)C2=O [17-AAG] + O=C(c1cc(Cc2n[nH]c(=O)c3ccccc23)ccc1F)N1CCN(C(=O)C2CC2)CC1 [Olaparib] (partner 8 µM)
Summary of the method: (§1)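 After 5 days of treatment, lung cancer cells in 1536-well plates were fixed and stained in a single step (final 0.05% Triton X-100, 1% formaldehyde, 1 ug/ml Hoechst) and their nuclei counted on 4× images. Treatment had been applied by pin tool the day after seeding as one drug alone or as a fixed anchor-drug dose with five library-drug doses (not always all listed) in √10 steps. Relative viability is the nuclei count of treated wells divided by that of vehicle wells, and values are medians of duplicate plates.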

[3] = compound: C=CCNC1=C2C[C@@H](C)C[C@H](OC)[C@H](O)[C@@H](C)/C=C(\C)[C@H](OC(N)=O)[C@@H](OC)/C=C\C=C(/C)C(=O)NC(=CC1=O)C2=O [17-AAG] + CS(=O)(=O)CCNCc1ccc(-c2ccc3ncnc(Nc4ccc(OCc5cccc(F)c5)c(Cl)c4)c3c2)o1 [Lapatinib] (partner 2 µM)
Summary of the method: as §1

[4] = compound: C=CCNC1=C2C[C@@H](C)C[C@H](OC)[C@H](O)[C@@H](C)/C=C(\C)[C@H](OC(N)=O)[C@@H](OC)/C=C\C=C(/C)C(=O)NC(=CC1=O)C2=O [17-AAG] + COc1cc2c(Oc3ccc(NC(=O)C4(C(=O)Nc5ccc(F)cc5)CC4)cc3F)ccnc2cc1OCCCN1CCOCC1 [Foretinib] (partner 0.25 µM)
Summary of the method: as §1

[5] = compound: C=CCNC1=C2C[C@@H](C)C[C@H](OC)[C@H](O)[C@@H](C)/C=C(\C)[C@H](OC(N)=O)[C@@H](OC)/C=C\C=C(/C)C(=O)NC(=CC1=O)C2=O [17-AAG] + C[C@@H](Oc1cc(-c2cnn(C3CCNCC3)c2)cnc1N)c1c(Cl)ccc(F)c1Cl [Crizotinib] (partner 1 µM)
Summary of the method: as §1

[6] = compound: C=CCNC1=C2C[C@@H](C)C[C@H](OC)[C@H](O)[C@@H](C)/C=C(\C)[C@H](OC(N)=O)[C@@H](OC)/C=C\C=C(/C)C(=O)NC(=CC1=O)C2=O [17-AAG] + N=C(N)NC(=N)NCCc1ccccc1 [Phenformin] (partner 250 µM)
Summary of the method: as §1

[7] = compound: C=CCNC1=C2C[C@@H](C)C[C@H](OC)[C@H](O)[C@@H](C)/C=C(\C)[C@H](OC(N)=O)[C@@H](OC)/C=C\C=C(/C)C(=O)NC(=CC1=O)C2=O [17-AAG] + CC1(C)CCC(c2ccc(Cl)cc2)=C(CN2CCN(c3ccc(C(=O)NS(=O)(=O)c4ccc(N[C@H](CCN5CCOCC5)CSc5ccccc5)c(S(=O)(=O)C(F)(F)F)c4)cc3)CC2)C1 [Navitoclax] (partner 0.5 µM)
Summary of the method: as §1

[8] = compound: C=CCNC1=C2C[C@@H](C)C[C@H](OC)[C@H](O)[C@@H](C)/C=C(\C)[C@H](OC(N)=O)[C@@H](OC)/C=C\C=C(/C)C(=O)NC(=CC1=O)C2=O [17-AAG] + C[C@]1(O)C[C@@H](c2nc(-c3ccc4ccc(-c5ccccc5)nc4c3)c3c(N)nccn32)C1 [Linsitinib] (partner 1 µM)
Summary of the method: as §1

[9] = compound: C=CCNC1=C2C[C@@H](C)C[C@H](OC)[C@H](O)[C@@H](C)/C=C(\C)[C@H](OC(N)=O)[C@@H](OC)/C=C\C=C(/C)C(=O)NC(=CC1=O)C2=O [17-AAG] + Nc1ncn([C@H]2C[C@H](O)[C@@H](CO)O2)c(=O)n1 [Decitabine] (partner 2 µM)
Summary of the method: as §1

[10] = compound: C=CCNC1=C2C[C@@H](C)C[C@H](OC)[C@H](O)[C@@H](C)/C=C(\C)[C@H](OC(N)=O)[C@@H](OC)/C=C\C=C(/C)C(=O)NC(=CC1=O)C2=O [17-AAG] + Cc1nc(NC(=O)N2CCC[C@H]2C(N)=O)sc1-c1ccnc(C(C)(C)C(F)(F)F)c1 [Alpelisib] (partner 2 µM)
Summary of the method: as §1

[11] = compound: C=CCNC1=C2C[C@@H](C)C[C@H](OC)[C@H](O)[C@@H](C)/C=C(\C)[C@H](OC(N)=O)[C@@H](OC)/C=C\C=C(/C)C(=O)NC(=CC1=O)C2=O [17-AAG] + CS(=O)(=O)N1CCN(Cc2cc3nc(-c4cccc5[nH]ncc45)nc(N4CCOCC4)c3s2)CC1 [Pictilisib] (partner 1 µM)
Summary of the method: as §1

Q: Which relative viability ([1]; 0.00128 µM) does the source give for A549 here?
A: Its relative viability is 0.948.

Q: And the relative viability ([1]; 0.004048 µM)?
A: Its relative viability is 0.86.

Q: And the relative viability ([1]; 0.0128 µM)?
A: Its relative viability is 0.115.

Q: What about the relative viability ([1]; 0.04048 µM) of the same cell line?
A: Its relative viability is 0.0515.

Q: What about the relative viability ([1]; 0.128 µM) of the same cell line?
A: Its relative viability is 0.0401.

Q: And the relative viability ([2]; first compound 0.00128 µM)?
A: The relative viability was 0.336.

Q: What about the relative viability ([2]; first compound 0.004048 µM) of the same cell line?
A: Its relative viability is 0.338.

Q: And the relative viability ([2]; first compound 0.0128 µM)?
A: The relative viability was 0.0515.

Q: And the relative viability ([2]; first compound 0.04048 µM)?
A: The relative viability was 0.0272.

Q: What about the relative viability ([2]; first compound 0.128 µM) of the same cell line?
A: The relative viability was 0.0363.

Q: What about the relative viability ([3]; first compound 0.00128 µM) of the same cell line?
A: The relative viability was 0.99.

Q: And the relative viability ([3]; first compound 0.004048 µM)?
A: The relative viability was 0.548.

Q: And the relative viability ([3]; first compound 0.0128 µM)?
A: Its relative viability is 0.129.

Q: What about the relative viability ([3]; first compound 0.04048 µM) of the same cell line?
A: Its relative viability is 0.0692.

Q: What about the relative viability ([3]; first compound 0.128 µM) of the same cell line?
A: The relative viability was 0.0593.

Q: And the relative viability ([4]; first compound 0.00128 µM)?
A: Its relative viability is 0.963.

Q: What about the relative viability ([4]; first compound 0.004048 µM) of the same cell line?
A: Its relative viability is 0.815.

Q: What about the relative viability ([4]; first compound 0.0128 µM) of the same cell line?
A: Its relative viability is 0.55.

Q: What about the relative viability ([4]; first compound 0.04048 µM) of the same cell line?
A: Its relative viability is 0.0245.

Q: What about the relative viability ([4]; first compound 0.128 µM) of the same cell line?
A: The relative viability was 0.0282.

Q: And the relative viability ([5]; first compound 0.00128 µM)?
A: The relative viability was 0.666.

Q: And the relative viability ([5]; first compound 0.004048 µM)?
A: The relative viability was 0.372.

Q: What about the relative viability ([5]; first compound 0.0128 µM) of the same cell line?
A: The relative viability was 0.0579.

Q: And the relative viability ([5]; first compound 0.04048 µM)?
A: Its relative viability is 0.0609.

Q: What about the relative viability ([5]; first compound 0.128 µM) of the same cell line?
A: Its relative viability is 0.0363.

Q: What about the relative viability ([6]; first compound 0.00128 µM) of the same cell line?
A: Its relative viability is 0.154.

Q: What about the relative viability ([6]; first compound 0.004048 µM) of the same cell line?
A: Its relative viability is 0.0295.

Q: And the relative viability ([6]; first compound 0.0128 µM)?
A: Its relative viability is 0.0354.

Q: What about the relative viability ([6]; first compound 0.04048 µM) of the same cell line?
A: Its relative viability is 0.0477.

Q: And the relative viability ([6]; first compound 0.128 µM)?
A: The relative viability was 0.03.

Q: And the relative viability ([7]; first compound 0.00128 µM)?
A: The relative viability was 1.13.

Q: And the relative viability ([7]; first compound 0.004048 µM)?
A: The relative viability was 0.542.

Q: What about the relative viability ([7]; first compound 0.0128 µM) of the same cell line?
A: Its relative viability is 0.0729.

Q: What about the relative viability ([7]; first compound 0.04048 µM) of the same cell line?
A: Its relative viability is 0.0453.

Q: And the relative viability ([7]; first compound 0.128 µM)?
A: Its relative viability is 0.044.

Q: What about the relative viability ([8]; first compound 0.00128 µM) of the same cell line?
A: The relative viability was 0.646.

Q: What about the relative viability ([8]; first compound 0.004048 µM) of the same cell line?
A: The relative viability was 0.487.

Q: What about the relative viability ([8]; first compound 0.0128 µM) of the same cell line?
A: The relative viability was 0.371.

Q: What about the relative viability ([8]; first compound 0.04048 µM) of the same cell line?
A: Its relative viability is 0.105.

Q: And the relative viability ([8]; first compound 0.128 µM)?
A: The relative viability was 0.0473.

Q: What about the relative viability ([9]; first compound 0.00128 µM) of the same cell line?
A: The relative viability was 0.123.

Q: What about the relative viability ([9]; first compound 0.004048 µM) of the same cell line?
A: Its relative viability is 0.271.

Q: What about the relative viability ([9]; first compound 0.0128 µM) of the same cell line?
A: Its relative viability is 0.128.

Q: What about the relative viability ([9]; first compound 0.04048 µM) of the same cell line?
A: Its relative viability is 0.0399.

Q: What about the relative viability ([9]; first compound 0.128 µM) of the same cell line?
A: Its relative viability is 0.0274.

Q: What about the relative viability ([10]; first compound 0.00128 µM) of the same cell line?
A: The relative viability was 0.777.

Q: What about the relative viability ([10]; first compound 0.004048 µM) of the same cell line?
A: The relative viability was 0.189.

Q: What about the relative viability ([10]; first compound 0.0128 µM) of the same cell line?
A: Its relative viability is 0.0463.

Q: And the relative viability ([10]; first compound 0.04048 µM)?
A: Its relative viability is 0.056.

Q: And the relative viability ([10]; first compound 0.128 µM)?
A: The relative viability was 0.0402.

Q: What about the relative viability ([11]; first compound 0.00128 µM) of the same cell line?
A: The relative viability was 0.543.

Q: And the relative viability ([11]; first compound 0.004048 µM)?
A: Its relative viability is 0.114.

Q: And the relative viability ([11]; first compound 0.0128 µM)?
A: Its relative viability is 0.0532.

Q: What about the relative viability ([11]; first compound 0.04048 µM) of the same cell line?
A: The relative viability was 0.0751.

Q: And the relative viability ([11]; first compound 0.128 µM)?
A: Its relative viability is 0.0642.
